From PMC7321161, “The Intriguing Effects of Substituents in the N-Phenethyl Moiety of Norhydromorphone: A Bifunctional Opioid from a Set of “Tail Wags Dog” Experiments” (Molecules, 2020)
Several values for one entry are separate records, joined by “and”; a condition that tells them apart may be missing. Identical values can stand only once.

Columns and labels:
δ-opioid receptor (DOR) = biological target: T1, δ-opioid receptor (DOR) (Rattus norvegicus, UniProt P33533); experiment: Opioid receptor binding, δ sites ([3H]DADLE), rat brain homogenate
T1 construct: Frozen whole rat brains excluding cerebellum were thawed on ice; from tissue; host or cells: whole rat brain excluding cerebellum, membrane homogenate
T1 sequence (P33533 whole entry): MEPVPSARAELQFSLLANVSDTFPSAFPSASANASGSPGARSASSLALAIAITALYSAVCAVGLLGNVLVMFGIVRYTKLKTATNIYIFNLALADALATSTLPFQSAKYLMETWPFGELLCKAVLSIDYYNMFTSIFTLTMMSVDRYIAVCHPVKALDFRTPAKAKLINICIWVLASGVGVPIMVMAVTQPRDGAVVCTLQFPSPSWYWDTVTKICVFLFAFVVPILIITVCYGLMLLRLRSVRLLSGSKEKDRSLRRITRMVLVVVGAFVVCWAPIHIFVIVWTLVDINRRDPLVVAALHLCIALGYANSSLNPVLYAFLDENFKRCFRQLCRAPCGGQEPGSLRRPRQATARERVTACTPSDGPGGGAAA

[1] = biological target: T2, human μ-opioid receptor (OPRM1) (Homo sapiens, UniProt P35372); experiment: cell-based; details: for EC50: MOR cAMP Agonist Potency ± SEM; for Emax: OPRM1, read-out: MOR cAMP % Efficacy
T2 construct: host or cells: HitHunter CHO-K1 cells
T2 sequence (P35372 whole entry): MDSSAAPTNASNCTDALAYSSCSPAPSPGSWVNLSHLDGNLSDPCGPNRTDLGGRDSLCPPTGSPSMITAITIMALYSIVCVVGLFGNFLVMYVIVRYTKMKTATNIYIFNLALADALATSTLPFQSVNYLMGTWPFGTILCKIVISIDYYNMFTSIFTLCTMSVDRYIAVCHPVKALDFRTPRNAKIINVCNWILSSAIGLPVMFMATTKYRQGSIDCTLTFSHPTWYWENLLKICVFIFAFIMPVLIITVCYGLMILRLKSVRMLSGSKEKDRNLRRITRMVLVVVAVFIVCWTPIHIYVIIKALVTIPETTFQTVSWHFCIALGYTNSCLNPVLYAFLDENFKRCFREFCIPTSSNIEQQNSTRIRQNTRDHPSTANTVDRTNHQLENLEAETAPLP

human KOR = biological target: T3, human KOR (Homo sapiens, UniProt P41145); experiment: Stimulation of [35S]GTPγS binding, CHO cell membranes expressing KOR; format: biochemical
T3 construct: expressed in transfected cells; membranes
T3 sequence (P41145 whole entry): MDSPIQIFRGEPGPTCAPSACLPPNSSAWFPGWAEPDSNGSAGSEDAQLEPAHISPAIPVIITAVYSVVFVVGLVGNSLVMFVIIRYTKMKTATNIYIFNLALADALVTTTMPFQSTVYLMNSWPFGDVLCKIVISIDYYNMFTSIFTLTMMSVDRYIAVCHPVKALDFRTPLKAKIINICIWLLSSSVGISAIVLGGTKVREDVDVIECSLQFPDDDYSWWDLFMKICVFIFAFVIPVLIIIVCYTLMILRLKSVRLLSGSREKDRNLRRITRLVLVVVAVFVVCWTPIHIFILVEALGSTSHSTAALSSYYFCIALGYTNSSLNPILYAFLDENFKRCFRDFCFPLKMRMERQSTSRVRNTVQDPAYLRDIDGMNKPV

rat DOR = biological target: T4, rat DOR (Rattus norvegicus, UniProt P33533); experiment: Stimulation of [35S]GTPγS binding, C6 glioma cell membranes expressing DOR; format: biochemical; details: for EC50: DOR EC50, [35S]GTPγS, C6 cells expressing DOR, mean ± SEM; for DOR % Stimulation, [35S]GTPγS: compared to standard maximal DPDPE
T4 construct: expressed in transfected cells; host or cells: C6 rat glioma cells, stably transfected; membranes
T4 sequence (P33533 whole entry): as the sequence (P33533 whole entry) above

[2] = biological target: T5, human κ-opioid receptor (OPRK1) (Homo sapiens, UniProt P41145); experiment: cell-based; details: for Emax: CHO-K1, read-out: KOR cAMP % Efficacy; for EC50: KOR cAMP Agonist Potency ± SEM
T5 construct: host or cells: HitHunter CHO-K1 cells
T5 sequence (P41145 whole entry): as the sequence (P41145 whole entry) above

[3] = biological target: T6, human δ-receptor (OPRMD1) (Homo sapiens, UniProt P41143); experiment: cell-based; format: cell-based; details: for Emax: CHO-K1, read-out: DOR cAMP % Efficacy; for EC50: DOR cAMP Agonist Potency ± SEM
T6 construct: host or cells: HitHunter CHO-K1 cells
T6 sequence (P41143 whole entry): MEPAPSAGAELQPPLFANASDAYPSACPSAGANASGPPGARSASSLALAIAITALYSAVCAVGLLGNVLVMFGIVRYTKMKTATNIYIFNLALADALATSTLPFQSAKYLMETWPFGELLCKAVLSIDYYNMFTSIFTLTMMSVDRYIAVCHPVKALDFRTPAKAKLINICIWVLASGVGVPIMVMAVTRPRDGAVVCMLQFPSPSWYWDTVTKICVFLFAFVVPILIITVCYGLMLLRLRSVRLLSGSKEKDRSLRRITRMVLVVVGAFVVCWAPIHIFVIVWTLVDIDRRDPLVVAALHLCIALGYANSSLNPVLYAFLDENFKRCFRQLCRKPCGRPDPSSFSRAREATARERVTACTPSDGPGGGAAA

[4] = biological target: T7, human μ-opioid receptor β-arrestin-2 (Homo sapiens, UniProt P35372); experiment: cell-based; details: for Emax: read-out: MOR Mediated β-arrestin Recruitment (% Control, Emax DAMGO)
T7 construct: enzyme fragment for EFC (β-galactosidase ProLink fragment, by own knowledge of the PathHunter system); host or cells: PathHunter CHO cells
T7 sequence (P35372 whole entry, the tested form may be a part): as the sequence (P35372 whole entry) above

rat MOR = biological target: T8, rat MOR (Rattus norvegicus, UniProt P33535); experiment: Stimulation of [35S]GTPγS binding, C6 glioma cell membranes expressing MOR; format: biochemical; details: for MOR % Stimulation, [35S]GTPγS: compared to standard maximal DAMGO; for MOR activity type in the [35S]GTPγS assay: antagonist activity assumed from high MOR affinity and lack of stimulation
T8 construct: expressed in transfected cells; host or cells: C6 rat glioma cells, stably transfected; membranes
T8 sequence (P33535 whole entry): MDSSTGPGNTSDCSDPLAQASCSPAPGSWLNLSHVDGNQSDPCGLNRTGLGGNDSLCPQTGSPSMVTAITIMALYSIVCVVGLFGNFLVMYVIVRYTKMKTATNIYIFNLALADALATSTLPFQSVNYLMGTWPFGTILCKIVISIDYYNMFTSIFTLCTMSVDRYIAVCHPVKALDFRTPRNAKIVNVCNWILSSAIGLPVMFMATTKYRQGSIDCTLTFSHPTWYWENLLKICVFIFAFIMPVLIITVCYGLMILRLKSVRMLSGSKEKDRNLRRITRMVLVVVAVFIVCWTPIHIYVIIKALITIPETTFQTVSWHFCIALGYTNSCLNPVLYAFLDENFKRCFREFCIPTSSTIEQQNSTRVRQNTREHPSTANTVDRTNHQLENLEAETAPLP

μ-opioid receptor (MOR) = biological target: T9, μ-opioid receptor (MOR) (Rattus norvegicus, UniProt P33535); experiment: Opioid receptor binding, μ sites ([3H]DAMGO), rat brain homogenate
T9 construct: Frozen whole rat brains excluding cerebellum were thawed on ice; from tissue; host or cells: whole rat brain excluding cerebellum, membrane homogenate
T9 sequence (P33535 whole entry): as above

κ-opioid receptor (KOR) = biological target: T10, κ-opioid receptor (KOR) (Rattus norvegicus, UniProt P34975); experiment: Opioid receptor binding, κ sites ([3H]U69,593), rat brain homogenate; details: for Ki: KOR Binding (Ki), whole rat brain excluding cerebellum, [3H]U69,593, Ki ± SEM
T10 construct: Frozen whole rat brains excluding cerebellum were thawed on ice; from tissue; host or cells: whole rat brain excluding cerebellum, membrane homogenate
T10 sequence (P34975 whole entry): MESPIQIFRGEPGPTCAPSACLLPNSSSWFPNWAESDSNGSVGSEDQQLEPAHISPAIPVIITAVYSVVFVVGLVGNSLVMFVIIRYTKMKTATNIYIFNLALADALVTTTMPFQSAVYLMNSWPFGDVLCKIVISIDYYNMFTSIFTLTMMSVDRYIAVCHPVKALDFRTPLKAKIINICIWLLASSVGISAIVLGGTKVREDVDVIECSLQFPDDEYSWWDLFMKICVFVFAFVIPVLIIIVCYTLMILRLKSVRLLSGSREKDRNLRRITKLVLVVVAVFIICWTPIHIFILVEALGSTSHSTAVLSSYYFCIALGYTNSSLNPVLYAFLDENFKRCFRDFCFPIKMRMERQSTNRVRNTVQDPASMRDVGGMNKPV

Row | SMILES | Ki (δ-opioid receptor (DOR)) [nM] | EC50 [1] | Emax [1] [%] | EC50 (rat DOR) [nM] | DOR % Stimulation, [35S]GTPγS (rat DOR) | Emax [2] [%] | EC50 [2] | Emax [3] [%] | EC50 [3] [nM] | Bias Factor [4] | EC50 [4] [nM] | Emax [4] [%] | EC50 (rat MOR) [nM] | MOR % Stimulation, [35S]GTPγS (rat MOR) [%] | Ki (μ-opioid receptor (MOR)) [nM] | Ki (κ-opioid receptor (KOR)) [nM] | MOR activity type in the [35S]GTPγS assay (rat MOR) | also measured
1 | O=C1CCC2C3Cc4ccc(O)c5c4[C@@]2(CCN3CCc2ccccc2F)[C@H]1O5 (stereo partly drawn) [Compound 2g, (7aR,12bS)-9-Hydroxy-3-(2-fluorophenethyl)-2,3,4,4a,5,6-hexahydro-1H-4,12-methanobenzofuro[3,2-e]-isoquinolin-7(7aH)-one] | 3.57 ± 0.49 | 0.01 nM | 101 | 92.7 ± 17 | 83.0 ± 3.3% | 74 | 19.9 nM | 93.8 | 0.26 | 1.37 | 1.7 | 73.2 | 2.1 ± 0.7 | 100 ± 0.3 | 0.32 ± 0.04 | 23.2 ± 2.8 | – | KOR EC50, [35S]GTPγS (human KOR; CHO cells expressing KOR, mean ± SEM, DNS = no stimulation): DNS
2 | Cc1ccc(CCN2CC[C@]34c5c6ccc(O)c5O[C@H]3C(=O)CCC4C2C6)cc1 (stereo partly drawn) [Compound 2c, (7aR,12bS)-9-Hydroxy-3-(4-methylphenethyl)-2,3,4,4a,5,6-hexahydro-1H-4,12-methanobenzofuro[3,2-e]-isoquinolin-7(7aH)-one] | 6.34 ± 0.65 | 0.08 nM | 102 | 23.1 ± 6.9 | 95% and 95.4 ± 3.8% | 99.4 | 8.7 nM and 8.71 nM | 95 | 1 | 1.12 | 5.6 | 46.5 | 1.9 ± 0.7 | 55.6 ± 2.1 | 0.86 ± 0.12 | 44 ± 3.8 | potent partial MOR agonist | EC50 (human KOR): 38.1 ± 10.6 nM; KOR % Stimulation, [35S]GTPγS (human KOR; compared to standard maximal U69593): 31.4 ± 4.2%
3 | C[C@@H](NC(=O)[C@@H](N)Cc1ccc(O)cc1)C(=O)NCC(=O)N(C)[C@@H](Cc1ccccc1)C(=O)NCCO [DAMGO, [D-Ala^2, N-MePhe^4, Gly-ol]-enkephalin, reference compound] | – | – | 102 | – | – | – | – | – | – | – | – | – | – | – | – | – | – | –
4 | O=C1CCC2C3Cc4ccc(O)c5c4[C@@]2(CCN3CC2Cc3ccccc3C2)[C@H]1O5 (stereo partly drawn) [Compound 1d, (7aR,12bS)-3-((2,3-Dihydro-1H-inden-2-yl)methyl)-9-hydroxy-2,3,4,4a,5,6-hexahydro-1H-4,12-methano-benzofuro[3,2-e]isoquinolin-7(7aH)-one] | 844 ± 107 | 18.3 nM | 95.2 | – | – | – | > 10000 nM | 94.4 | 596 | 2.53 | 130 | 1.9 | – | – | 40.1 ± 5.9 | – | – | KOR Binding, exploratory binding assay (κ-opioid receptor (KOR); radioligand displacement at 100 nM): NT (NT = not tested—inactive (<50% activity at 100 nM concentration in exploratory binding assays (displaced less than half of radioligand))
5 | O=C(O)C(=O)O.O=C1CCC2[C@H]3Cc4ccc(O)c5c4[C@@]2(CCN3CCc2ccc(Br)cc2)[C@H]1O5 (stereo partly drawn) [Compound 2j, (4R,7aR,12bS)-3-(4-Bromophenethyl)-9-hydroxy-2,3,4,4a,5,6-hexahydro-1H-4,12-methanobenzofuro[3,2-e]-isoquinolin-7(7aH)-one oxalate] | – | 0.15 nM | 103 | – | – | 99 | 20 nM and 20.1 nM | 96 | 0.97 | 0.43 | 4.9 | 53 | – | – | – | – | – | EC50 δ/μ ratio in the cAMP assay [3]: 6.5
6 | O=C1CCC2C3Cc4ccc(O)c5c4C2(CCN3CCc2cccc([N+](=O)[O-])c2)C1O5 [Compound 2b, (7aR,12bS)-9-Hydroxy-3-(3-nitrophenethyl)-2,3,4,4a,5,6-hexahydro-1H-4,12-methanobenzofuro[3,2-e]-0isoquinolin-7(7aH)-one] | 92.5 ± 7.3 | 5.2 nM and 5.22 nM | 102 | – | – | – | > 10000 nM | 95.3 | 46.7 | 3.38 | 116 | 6 | – | – | 5.88 ± 0.38 | 65.4 ± 7.7 | MOR antagonist | MOR EC50, [35S]GTPγS (rat MOR; C6 cells expressing MOR, mean ± SEM, DNS = no stimulation): DNS
